Results: article PMC6400584, “Activation mechanism of ATP-sensitive K^+ channels explored with real-time nucleotide binding” (eLife, 2019)

Columns and labels:
[1] = molecular target: T1, SUR1-Y1353^stop/Kir6.2 (Homo sapiens, UniProt Q09428+Q14654); assay: Current response to 100 μM nucleotide relative to nucleotide-free solution, inside-out patches; format: biochemical; settings: truncated SUR1-Y1353^stop
T1 construct: expressed in transfected cells; host or cells: HEK-293T
T1 sequence (Q09428 1-1352): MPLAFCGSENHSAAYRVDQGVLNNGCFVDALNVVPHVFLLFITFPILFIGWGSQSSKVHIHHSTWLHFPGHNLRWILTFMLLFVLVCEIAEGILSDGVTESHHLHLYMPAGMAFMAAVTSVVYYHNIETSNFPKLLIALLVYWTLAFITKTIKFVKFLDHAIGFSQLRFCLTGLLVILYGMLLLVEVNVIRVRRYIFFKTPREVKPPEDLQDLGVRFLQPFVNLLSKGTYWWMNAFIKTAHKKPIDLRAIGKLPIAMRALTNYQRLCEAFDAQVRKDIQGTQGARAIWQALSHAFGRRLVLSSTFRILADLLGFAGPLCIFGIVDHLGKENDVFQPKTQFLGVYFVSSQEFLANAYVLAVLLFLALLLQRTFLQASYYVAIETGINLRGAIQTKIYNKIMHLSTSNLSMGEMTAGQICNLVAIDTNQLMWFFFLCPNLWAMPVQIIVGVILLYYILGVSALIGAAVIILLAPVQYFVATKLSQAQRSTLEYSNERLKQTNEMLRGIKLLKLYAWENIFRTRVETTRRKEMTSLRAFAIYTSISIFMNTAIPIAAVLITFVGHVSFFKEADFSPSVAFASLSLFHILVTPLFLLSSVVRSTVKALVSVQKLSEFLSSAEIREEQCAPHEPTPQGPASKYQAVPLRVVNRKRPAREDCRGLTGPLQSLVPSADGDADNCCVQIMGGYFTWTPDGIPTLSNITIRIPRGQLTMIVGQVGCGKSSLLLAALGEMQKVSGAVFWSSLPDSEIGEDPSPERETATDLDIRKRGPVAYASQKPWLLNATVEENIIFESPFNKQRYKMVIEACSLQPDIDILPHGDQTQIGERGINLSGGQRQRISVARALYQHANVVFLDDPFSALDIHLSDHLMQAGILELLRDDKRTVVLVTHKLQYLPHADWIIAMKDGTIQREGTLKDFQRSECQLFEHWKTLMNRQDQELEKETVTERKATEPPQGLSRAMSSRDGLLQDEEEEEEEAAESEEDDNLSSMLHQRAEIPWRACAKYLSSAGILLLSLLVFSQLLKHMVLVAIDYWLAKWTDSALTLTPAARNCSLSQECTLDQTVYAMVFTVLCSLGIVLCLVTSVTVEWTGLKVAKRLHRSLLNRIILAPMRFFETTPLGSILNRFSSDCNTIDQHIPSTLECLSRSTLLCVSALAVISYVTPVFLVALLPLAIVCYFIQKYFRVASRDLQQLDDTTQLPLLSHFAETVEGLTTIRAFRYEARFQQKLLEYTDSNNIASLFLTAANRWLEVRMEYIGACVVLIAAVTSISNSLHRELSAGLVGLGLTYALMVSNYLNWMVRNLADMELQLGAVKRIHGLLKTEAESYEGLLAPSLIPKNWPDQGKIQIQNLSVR
T1 sequence (Q14654 1-390): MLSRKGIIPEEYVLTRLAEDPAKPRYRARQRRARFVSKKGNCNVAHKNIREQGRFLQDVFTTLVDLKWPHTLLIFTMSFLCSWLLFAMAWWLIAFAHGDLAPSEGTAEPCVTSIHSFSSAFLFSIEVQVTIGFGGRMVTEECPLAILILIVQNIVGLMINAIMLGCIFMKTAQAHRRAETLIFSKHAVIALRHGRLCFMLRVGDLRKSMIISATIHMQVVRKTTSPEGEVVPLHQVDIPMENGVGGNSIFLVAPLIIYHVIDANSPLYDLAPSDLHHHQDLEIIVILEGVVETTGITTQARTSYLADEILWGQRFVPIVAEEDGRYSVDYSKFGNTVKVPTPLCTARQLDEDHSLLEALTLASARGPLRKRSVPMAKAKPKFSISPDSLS
Description: (§1) Currents were recorded from inside-out membrane patches excised from transfected HEK-293T cells. Pipettes were pulled to a resistance of 1–5 MΩ and filled with an extracellular solution containing (in mM) 140 KCl, 1.2 MgCl2, 2.6 CaCl2, and 10 HEPES, pH 7.4 or 140 KCl, 1 EGTA, 10 HEPES, pH 7.3. The intracellular (bath) solutions contained either (in mM) 107 KCl, 2 MgCl2, 1 CaCl2, 10 EGTA, and 10 HEPES, pH 7.2 for experiments showing nucleotide-dependent activation or 140 KCl, 1 EDTA, 1 EGTA, 10 HEPES pH 7.3 for experiments showing nucleotide-dependent inhibition. Nucleotides were added as indicated. Patches were perfused with an 8-channel µFlow perfusion system. Data were acquired at a holding potential of −60 mV using an Axopatch 200B amplifier and Digidata 1322A digitizer with pClamp 9.0 software (Molecular Devices). Currents were digitized at 10 kHz and low-pass filtered at 1 kHz. KATP channels run down in excised patches (reviewed by Proks et al.) ([Proks et al., 2016]). For inhibitory concentration-response relationships, rundown was corrected by alternating test nucleotide solutions with nucleotide-free (control) solutions and expressing the test currents as a fraction of the average of the control currents before and after the test solution. […]

[2] = molecular target: T2, 3xFLAG_SUR1/Kir6.2 (Homo sapiens, UniProt Q09428+Q14654, INS1042[…]); assay: as above; format: biochemical
T2 construct: expressed in transfected cells; host or cells: HEK-293T
Description: as §1

T2 sequence (Q09428 with tags, fused parts or gaps INS1042[withheld], one chain of several): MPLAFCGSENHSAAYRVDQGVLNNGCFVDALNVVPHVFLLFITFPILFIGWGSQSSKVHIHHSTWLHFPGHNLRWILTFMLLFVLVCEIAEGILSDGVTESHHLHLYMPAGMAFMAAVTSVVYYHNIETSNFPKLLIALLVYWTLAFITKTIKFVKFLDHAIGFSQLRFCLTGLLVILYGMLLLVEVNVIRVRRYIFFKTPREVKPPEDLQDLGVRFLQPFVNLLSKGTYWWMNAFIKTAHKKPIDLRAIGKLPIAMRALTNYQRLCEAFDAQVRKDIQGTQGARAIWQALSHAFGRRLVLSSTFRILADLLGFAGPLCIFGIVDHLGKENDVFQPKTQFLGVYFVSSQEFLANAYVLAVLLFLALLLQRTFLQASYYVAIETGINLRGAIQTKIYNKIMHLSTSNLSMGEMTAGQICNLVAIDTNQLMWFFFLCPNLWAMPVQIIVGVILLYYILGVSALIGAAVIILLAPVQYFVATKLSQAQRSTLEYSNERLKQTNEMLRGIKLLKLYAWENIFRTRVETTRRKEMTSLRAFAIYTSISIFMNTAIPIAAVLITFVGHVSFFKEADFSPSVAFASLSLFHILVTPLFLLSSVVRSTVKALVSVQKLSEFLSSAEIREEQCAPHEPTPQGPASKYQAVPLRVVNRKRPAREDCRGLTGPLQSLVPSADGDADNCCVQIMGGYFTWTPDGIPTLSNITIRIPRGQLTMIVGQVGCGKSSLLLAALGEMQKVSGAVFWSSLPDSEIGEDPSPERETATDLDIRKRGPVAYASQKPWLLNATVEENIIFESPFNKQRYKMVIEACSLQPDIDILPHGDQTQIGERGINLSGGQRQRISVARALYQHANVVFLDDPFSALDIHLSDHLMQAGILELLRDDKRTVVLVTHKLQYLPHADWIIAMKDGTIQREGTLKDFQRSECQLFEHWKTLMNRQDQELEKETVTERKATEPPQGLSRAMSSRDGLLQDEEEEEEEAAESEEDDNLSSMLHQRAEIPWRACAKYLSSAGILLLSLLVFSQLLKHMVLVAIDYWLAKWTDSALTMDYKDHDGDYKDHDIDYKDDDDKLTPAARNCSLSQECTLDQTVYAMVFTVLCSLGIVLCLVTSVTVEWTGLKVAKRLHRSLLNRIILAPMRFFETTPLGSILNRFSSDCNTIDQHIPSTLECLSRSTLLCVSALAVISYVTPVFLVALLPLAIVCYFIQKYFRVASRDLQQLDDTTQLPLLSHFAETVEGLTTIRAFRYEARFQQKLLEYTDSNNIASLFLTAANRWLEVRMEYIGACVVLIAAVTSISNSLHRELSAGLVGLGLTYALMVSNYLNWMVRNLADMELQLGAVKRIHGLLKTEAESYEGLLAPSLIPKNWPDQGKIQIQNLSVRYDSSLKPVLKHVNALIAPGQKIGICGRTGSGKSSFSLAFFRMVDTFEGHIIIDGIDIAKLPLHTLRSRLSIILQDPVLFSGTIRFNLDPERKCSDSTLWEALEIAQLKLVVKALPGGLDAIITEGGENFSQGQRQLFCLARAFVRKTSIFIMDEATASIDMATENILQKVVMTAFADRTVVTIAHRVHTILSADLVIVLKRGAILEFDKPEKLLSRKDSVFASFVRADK

For Nc1ncnc2c1ncn2[C@@H]1O[C@H](COP(=O)([O-])OP(=O)([O-])O)[C@@H](O)[C@H]1O.[Mg+2] [MgADP], the inhibition of current [1] was 59% and the “increase of current over nucleotide-free control” value [2] was 3.6 fold.
